Among the data in patent US20010018452A1 (published 2001) are melting point values, retold here.

As usually defined, the melting point is the temperature of the solid-liquid transition.

`CON=C(C(=O)OC)c1cc(C)c(C)cc1COc1ccccc1C` yielded a melting point of 82 to 84 °C.
`CNC(=O)C(=NOC)c1cc(C)c(C)cc1C(ON)=C(C)c1cccc(C(F)(F)F)c1` yielded a melting point of 129 to 134 °C.
